For data set [1] the following is noted: rcm bond, toluene, 80.0 °C.
The conditions of data set [2]: rcm bond; 20-membered ring; Grubbs II; toluene; 1.6 mM; 80.0 °C.
The next data set addresses Human Factor D (Homo sapiens (Human), UniProt P00746). Description: Human Factor D Assay. Particulars: Human Factor D 80 nM, substrate Z-L-Lys-SBzl, DTNB, A405; read-out: IC50 (Stars). The data set is classed as biochemical. A digest of the protocol:
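Serum-purified enzyme (80 nM final) was preincubated with compound 5 min at room temperature in 50 mM Tris, 1M NaCl, pH 7.5. Z-L-Lys-SBzl and DTNB ([…] each, final) were added and A405 followed every 30 s for 30 min; IC50 from nonlinear regression of reaction rates.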

pIC50: −log10 of the molar value. Where two headings read alike, the source gives them in different places. Where only a bound is given, the exact number is not on record here.

Chain of Human Factor D (P00746 26-253): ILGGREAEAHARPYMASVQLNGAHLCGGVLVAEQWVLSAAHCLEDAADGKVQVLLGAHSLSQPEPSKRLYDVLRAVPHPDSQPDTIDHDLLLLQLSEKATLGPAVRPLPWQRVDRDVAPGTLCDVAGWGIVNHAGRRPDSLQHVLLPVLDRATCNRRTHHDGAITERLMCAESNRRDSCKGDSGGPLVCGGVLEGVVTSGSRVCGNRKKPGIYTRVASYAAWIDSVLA

In data set [1] (from C=CCOCc1ccc(Br)nc1NC(=O)[C@@H]1C[C@@]2(CN(C)CC=C)C[C@H]2N1C(=O)OC(C)(C)C, 15-membered ring, Hoveyda-Grubbs II (extra 5 mg portions), 10.0 mM, 2.0 h), `CN1CC=CCOCc2ccc(Br)nc2NC(=O)[C@@H]2C[C@]3(C[C@H]3N2C(=O)OC(C)(C)C)C1` came in with a ring closure, isolated yield of 68%.

In the case of `CC(=O)c1nn2c3cc(ccc13)OC(=O)NCCCC=CCOC[C@@]13C[C@@H](C(=O)Nc4nc(Br)ccc4C)N(C(=O)C2)[C@@H]1C3`, the ring closure, isolated yield in data set [1] (from C=CCCCNC(=O)Oc1ccc2c(C(C)=O)nn(CC(=O)N3[C@H](C(=O)Nc4nc(Br)ccc4C)C[C@@]4(COCC=C)C[C@@H]34)c2c1, 20-membered ring, Grubbs II, 1.48 mM, 16.0 h) stood at 4.1%.

Take `Cc1ncc(-c2cc3c(C#N)nn4c3c(n2)CC=CCCCC(=O)NC[C@]23C[C@@H](C(=O)Nc5nc(Br)ccc5C)N[C@@]2(C3)C(=O)C4)cn1`: the ring closure, isolated yield in data set [1] (from C=CCCCC(=O)NC[C@]12C[C@@H](C(=O)Nc3nc(Br)ccc3C)N[C@]1(C(=O)Cn1nc(C#N)c3cc(-c4cnc(C)nc4)nc(CC=C)c31)C2, 17-membered ring, Grubbs II, 1.27 mM, 16.0 h) worked out at 44.8%.

As for “(4^1R,4^3S,4^5S,Z)-1^3-acetyl-N-(6-bromo-3-methylpyridin-2-yl)-3,14-dioxo-1^1H-6-oxa-4^2,13,15-triaza-1(1,6)-indazola-4(2,5)-bicyclo[3.1.0]hexanacyclopentadecaphan-8-ene-43-carboxamide”, the ring closure, yield after HPLC in data set [2] came out at 2.1%.

For the molecule `CC(=O)c1nn2c3c(cc(-c4ccc5nc(C)nn5c4)cc13)CCCCCCC(=O)NC[C@@]13C[C@@H](C(=O)Nc4nc(C(F)(F)F)ccc4C)N(C(=O)C2)[C@@H]1C3` [Compound T-257], the pIC50 (commonly −log10 of the IC50, conventionally taken in molar units) at Human Factor D is more than 6.00.

Consider `CC(=O)c1nn2c3c(cc(-c4cnc(C)nc4)cc13)CC=CCCCC(=O)NC[C@]1(F)C[C@@H](C(=O)Nc3nc(C(F)(F)F)ccc3C)N(C1)C(=O)C2` [Compound T-127], for which, on Human Factor D, the pIC50 was less than 5.00.

Take `CC(=O)c1nn(CC(=O)N2[C@H]3C[C@]4(C[C@@H]24)CN(C)CCCCCCc2ccc(Br)nc2NC3=O)c2cnc(-c3cnc(C)nc3)cc12` [Compound T-76]: the pIC50 on Human Factor D is more than 6.00.

In the case of `CC(=O)c1nn2c3c(cc(-c4cnc(C)nc4)cc13)CCCCC[C@@H](C)C(=O)N(C)C[C@@]13C[C@@H](C(=O)Nc4nc(C(F)(F)F)ccc4C)N(C(=O)C2)[C@@H]1C3` [Compound T-205], the pIC50 at Human Factor D was more than 6.00.

These data come from patent US11053253B2, “Macrocyclic compounds for treatment of medical disorders” (Achillion Pharmaceuticals, Inc., priority 2017, dated 2021).
